Reference: patent US20200246380A1, “Pharmaceutical Composition for Preventing or Treating Autoimmune Disease, and Method for Producing Same” (priority 2017, published 2020)

Experiments:
Type in all cases: cell-based, C57BL/6 mice
[1] = system: plasmacytoid dendritic cells; assay: IL-10 secretion from pDC induced with various toll-like receptor agonists, ELISA (Example 3); settings: pDC stimulated with ODN1826 (1 μg/ml), 24 hours; vs non-treatment
Protocol: Ligands listed in Table 2 were used as the toll-like receptor agonist. […] The separated cells (5×10^5 cells/ml) were inoculated into a 48 well plate. ODN1826 (1 μg/ml) was applied thereto and the cells were cultured for 24 hours. Then, supernatant was separated. The secretion pattern of the immunosuppressive cytokine IL-10 was then checked by ELISA (enzyme linked immunosorbent assay). In this connection, in order to check the effect from the treatment using the toll-like receptor agonist, the case in which the toll-like receptor agonist was not applied thereto during the differentiation of the immature dendritic cells is shown as Comparative Example (non).

[2] = system: plasmacytoid dendritic cells; assay: Cytokine secretion from pDC according to treatment time of toll-like receptor agonist, ELISA (Example 4); settings: agonist applied at start of differentiation (0 day treatment) or 3 days thereafter; ODN1826 24 hours; vs no-treatment
From the text: Differentiation into the plasmacytoid dendritic cells was induced by the same method as in Example 1 in order to check the immune tolerance inducing effect of the toll-like receptor agonist according to the treatment time point. Further, the toll-like receptor agonists were applied at the start time of the differentiation (0-day treatment) and were applied on 3 days after the start of differentiation (3 day treatment). After the total 8 days culturing, the plasmacytoid dendritic cells were isolated therefrom at a purity equal to or greater than 85% using a plasmacytoid dendritic cell separation kit (Miltenyi Biotec, Auburn, Calif.) and a magnetic cell sorting system (Vario MACS: Miltenyi Biotec, Auburn, Calif.). The separated cells (5×10^5 cells/ml) were inoculated into a 48 well plate. ODN1826 (1 μg/ml) was applied thereto and the cells were cultured for 24 hours. Then, supernatant was separated. The secretion pattern of the cytokine was then checked by ELISA (enzyme linked immunosorbent assay). In this connection, in order to check the effect from the treatment using the toll-like receptor agonist, the case in which the toll-like receptor agonist was not applied thereto during the differentiation of the immature dendritic cells is shown as Comparative Example (no-treatment, non).

immature dendritic cells = assay: Differentiation of immature dendritic cells into plasmacytoid dendritic cells with toll-like receptor agonist (Example 1); settings: Pam3 100 to 500 ng/ml on third day of Flt3L differentiation; treatment vs non-treatment
Protocol: Specifically, thigh bone marrow samples were collected from C57BL/6 mice using bone marrow collecting syringes. The collected bone marrow was washed with phosphate buffered saline (PBS), and red blood cells were removed therefrom using ammonium chloride. Separated cells (3×10^6 cells/well) were inoculated in a 6-well plate. Then, 1 ml of RPMI 1640 containing 10% FBS (fetal bovine serum), 2 mM L-glutamine, 100 U/ml penicillin/streptomycin, 50 μM mercaptoethanol, 0.1 mM non-essential amino acid, 1 mM sodium pyruvate and 250 ng/ml FLT3L was added thereto to initiate culture and differentiation of the cells. On the third day after the start of differentiation, Pam3 was applied thereto at a concentration of 100 to 500 ng/ml. On 5 days from the start of differentiation, 1 ml of the RPMI 1640 was further supplemented thereto. The cells were cultured for 8 days. […] Further, in the case (TLRs-pDC) when the immature dendritic cells were treated with the toll-like receptor agonist, the ratio of the number of plasmacytoid dendritic cells obtained after the eighth day to the number of the initial immature dendritic cells was measured. […]

| Compound | expression level of IL-10 from pDC differentiated via treatment with the agonist [1] | expression level of IFN-α [2] | expression level of IFN-β [2] | expression level of IL-10 [2] | expression level of IL-12p70 [2] | expression level of TNF-α [2] | differentiation efficiency into plasmacytoid dendritic cells (immature dendritic cells) |
| --- | --- | --- | --- | --- | --- | --- | --- |
| CC(C)Cn1cnc2c(N)nc3ccccc3c21 [TLR7 agonist, Imiquimod] | significantly increased | – | – | – | – | – | – |
| LPS [TLR4 agonist] | significantly increased | – | – | – | – | – | – |
| Pam3 [TLR2 agonist] | significantly increased | inhibited | inhibited | significantly increased | inhibited | inhibited | no difference |
